{"source": "patent US12173088B2", "about": "“Anti-microbial peptides” (priority 2018, dated 2024)", "key": {"[1]": {"system": "Klebsiella pneumoniae clinical strains", "test": "microbe, parasite or virus in culture", "settings": "Klebsiella pneumoniae", "experimental": "(§1) The antibacterial activity of peptides was evaluated using a standard broth microdilution protocol with minor modifications (Mishra, et al. (2017) Acta Biomater., 49:316-328). In brief, logarithmic phase bacterial cultures (i.e., optical density at 600 nm≈0.5) were diluted to 0.001 OD and aliquoted 90 μL per well into a 96-well polystyrene microplate. Added 10 μL peptides per well with various concentrations, plates were incubated at 37° C., overnight. Post incubation the plates are read at 630 nm using a ChroMate® Microplate Reader (GMI). […] To study the influence of medium conditions on the antimicrobial activity of peptides against S. aureus USA300 at different pHs (6.8, 7.2, and 8.0), 150 mM sodium chloride (NaCl), 5-10% of human serum, mouse plasma, and peritoneal fluid were included into the assays."}, "E. coli E423-17": {"system": "E. coli E423-17", "test": "microbe, parasite or virus in culture", "type": "cell-based, Escherichia coli", "settings": "Table 14, read-out: MIC E. coli E423-17", "from_the_text": "(§2) The bacterial strains used include the Gram-positive strains Staphylococcus aureus USA300 LAC, S. epidermidis 1457, and Bacillus subtilis 168, as well as the Gram-negative isolates Escherichia coli K12 and Acinetobacter baumannii B2367-12. Additional, drug resistance strains include Gram-positive Enterococcus faecium V286-17 (VRE) and S. aureus M838-17 (MRSA) and Gram-negative E. coli E423-17, E. coli E416-17 (ampC), and P. aeruginosa E411-17. Bacteria were cultivated in tryptic soy broth (TSB) (BD Bioscience, MD).\n(§3) The antibacterial activity of peptides was evaluated using a standard broth microdilution protocol with minor modifications as described (Mishra, et al. (2012) J. Am. Chem. Soc., 134:12426-12429). In brief, logarithmic phase bacterial cultures (i.e., optical density at 600 nm≈0.5) were diluted to OD600 0.001 and partitioned into a 96-well polystyrene microplate at 90 μL per well. After treatment with 10 μL of peptide solutions two fold diluted to various concentrations, microplates were incubated at 37° C. overnight and read on a ChroMate® 4300 Microplate Reader at 630 nm (GMI, Ramsey, MN). […] To study the influence of medium conditions on the antimicrobial activity of peptides against S. aureus USA300, up to 200 mM sodium chloride (NaCl), 2 mM of calcium chloride, 5-10% of human serum, mouse plasma, fluid, or supernatants of tissue homogenates were included into the assays.\n(§4) The bacterial strains used include the Gram-positive bacteria methicillin-resistant Staphylococcus aureus USA300, Enterococcus faecium V286-17 (VRE), S. aureus M838-17 (MRSA) and Gram-negative bacteria E. coli E423-17, E416-7 (ampC), P. aeruginosa E411-17, PA01, K. pneumoniae E406-17, ATCC13883, and A. baumannii B26-16. Bacteria were cultivated in tryptic soy broth (TSB) from BD Bioscience.\nas §1"}, "S. aureus USA300": {"system": "S. aureus USA300", "test": "microbe, parasite or virus in culture", "type": "cell-based, Staphylococcus aureus", "settings": "Table 14, read-out: MIC S. aureus USA300 (MRSA)", "method_in_brief": "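Broth microdilution: log-phase cultures in tryptic soy broth diluted to OD600 0.001, exposed to two-fold diluted peptides at 37° C overnight, growth read at 630 nm. Medium effects on S. aureus USA300 tested with up to 200 mM NaCl, 2 mM CaCl2, 5-10% human serum, mouse plasma, fluids or tissue homogenate supernatants.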"}, "A. baumannii B26-16": {"system": "A. baumannii B26-16", "test": "microbe, parasite or virus in culture", "type": "cell-based, Acinetobacter baumannii", "settings": "Table 14, read-out: MIC A. baumannii B26-16", "experimental": "as §4, §1"}, "E. faecium V286-17 (VRE)": {"system": "E. faecium V286-17 (VRE)", "test": "microbe, parasite or virus in culture", "type": "cell-based, Enterococcus faecium", "settings": "Table 14, read-out: MIC E. faecium V286-17 (VRE)", "from_the_text": "as §2, §3, §4, §1"}, "K. pneumoniae E406-17": {"system": "K. pneumoniae E406-17", "test": "microbe, parasite or virus in culture", "type": "cell-based, Klebsiella pneumoniae", "settings": "for MIC: Table 14, read-out: MIC K. pneumoniae E406-17; for MIC K. pneumonia 406-17: E406-17", "experimental": "as §3, §4, §1"}, "P. aeruginosa E411-17": {"system": "P. aeruginosa E411-17", "test": "microbe, parasite or virus in culture", "type": "cell-based, Pseudomonas aeruginosa", "settings": "for MIC: Table 14, read-out: MIC P. aeruginosa E411-17; for MIC P. aeruginosa 411-17: E411-17", "from_the_text": "as §2, §3, §4, §1"}, "S. aureus M838-17 (MRSA)": {"system": "S. aureus M838-17 (MRSA)", "test": "microbe, parasite or virus in culture", "type": "cell-based, Staphylococcus aureus", "settings": "M838-17", "method_in_brief": "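Peptides were serially diluted two-fold against bacteria grown in tryptic soy broth to log phase (OD600 ≈0.5), then seeded at OD600 0.001. Plates were held overnight at 37° C and read at 630 nm. USA300 was also tested at pH 6.8, 7.2 and 8.0, with 150 mM NaCl or 5-10% serum, plasma or peritoneal fluid.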"}, "Hemolytic assay": {"test": "Hemolytic assay", "type": "cell-based, human", "settings": "human, human red blood cells, 2% (v/v)", "method_in_brief": "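HL50 marks the peptide level lysing half of a 2% (v/v) suspension of washed human erythrocytes after 1 h at 37 °C. Released hemoglobin measured at 545 nm, scaled between PBS (0%) and Triton X-100 (2% or 1%; 100%). Selectivity index computed as HL50 over MIC.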"}}, "note": "Read-outs that look alike come from different tables or passages of the source. Peptide text beside a SMILES is read from it.", "data": [{"molecule": "NC[C@H]1O[C@H](O[C@H]2[C@H](O)[C@@H](O[C@H]3O[C@H](CO)[C@@H](O)[C@H](N)[C@H]3O)[C@H](N)C[C@@H]2N)[C@H](N)C[C@@H]1O", "note": "[Tobramycin, reference compound]", "values": [{"measurement": "MIC", "setting": "[1]; strain KP-231-18", "result": 64, "unit": "µM"}, {"measurement": "MIC", "setting": "[1]; strain KP-232-18", "result": "> 64", "unit": "µM"}, {"measurement": "MIC", "setting": "[1]; strain KP-245-18", "result": "4 to 8", "unit": "µM"}, {"measurement": "MIC", "setting": "[1]; strain KP-249-18", "result": 8, "unit": "µM"}, {"measurement": "MIC", "setting": "[1]; strain KP-253-18", "result": 8, "unit": "µM"}, {"measurement": "MIC", "setting": "[1]; strain KP-256-18", "result": "> 64", "unit": "µM"}, {"measurement": "MIC", "setting": "[1]; strain KP-257-18", "result": "> 64", "unit": "µM"}, {"measurement": "MIC", "setting": "[1]; strain KP-262-18", "result": 4, "unit": "µM"}, {"measurement": "MIC", "setting": "[1]; strain KP-270-18", "result": 16, "unit": "µM"}, {"measurement": "MIC", "setting": "[1]; strain KP-B42-15", "result": 8, "unit": "µM"}, {"measurement": "MIC", "setting": "[1]; strain KP-B53-15", "result": 4, "unit": "µM"}, {"measurement": "MIC", "setting": "[1]; strain KP-B73-15", "result": 4, "unit": "µM"}, {"measurement": "MIC", "setting": "[1]; strain KP-B77-15", "result": 4, "unit": "µM"}, {"measurement": "MIC", "setting": "[1]; strain KP-B1725-18", "result": 8, "unit": "µM"}, {"measurement": "MIC", "setting": "E. coli E423-17; Escherichia coli, E42317", "result": 8, "unit": "µM"}, {"measurement": "MIC", "setting": "S. aureus USA300; Staphylococcus aureus, MRSA / USA300", "result": 4, "unit": "µM"}, {"measurement": "MIC", "setting": "A. baumannii B26-16; Acinetobacter baumannii, B2616", "result": 4, "unit": "µM"}, {"measurement": "MIC", "setting": "E. faecium V286-17 (VRE); Enterococcus faecium, VRE", "result": "> 8", "unit": "µM"}, {"measurement": "MIC", "setting": "K. pneumoniae E406-17; Klebsiella pneumoniae, E40617", "result": "> 8", "unit": "µM"}, {"measurement": "MIC", "setting": "P. aeruginosa E411-17; Pseudomonas aeruginosa, E41117", "result": 2, "unit": "µM"}]}, {"molecule": "CC(C)C[C@H](NC(=O)[C@H](Cc1c[nH]c2ccccc12)NC(=O)[C@H](Cc1c[nH]c2ccccc12)NC(=O)[C@H](Cc1c[nH]c2ccccc12)NC(=O)[C@H](Cc1c[nH]c2ccccc12)NC(=O)[C@H](CCCNC(=N)N)NC(=O)[C@H](CCCNC(=N)N)NC(=O)[C@@H](N)CCCNC(=N)N)C(N)=O", "note": "[WW306, RRRWWWWL] (H-RRRWWWWL-NH2; N-terminus and C-terminus assumed)", "values": [{"measurement": "MIC S. aureus M838-17", "setting": "S. aureus M838-17 (MRSA)", "result": 3.1, "unit": "µM"}, {"measurement": "HC50 at 1 h", "setting": "Hemolytic assay", "result": 60, "unit": "µM"}, {"measurement": "MIC K. pneumonia 406-17", "setting": "K. pneumoniae E406-17", "result": 6.25, "unit": "µM"}, {"measurement": "MIC P. aeruginosa 411-17", "setting": "P. aeruginosa E411-17", "result": 6.25, "unit": "µM"}]}, {"molecule": "C[C@H](NC(=O)[C@H](Cc1c[nH]c2ccccc12)NC(=O)[C@H](Cc1c[nH]c2ccccc12)NC(=O)[C@H](Cc1c[nH]c2ccccc12)NC(=O)[C@H](Cc1c[nH]c2ccccc12)NC(=O)[C@H](CCCNC(=N)N)NC(=O)[C@H](CCCNC(=N)N)NC(=O)[C@@H](N)CCCNC(=N)N)C(N)=O", "note": "[WW308, RRRWWWWA] (H-RRRWWWWA-NH2; N-terminus and C-terminus assumed)", "values": [{"measurement": "MIC S. aureus M838-17", "setting": "S. aureus M838-17 (MRSA)", "result": 12.5, "unit": "µM"}, {"measurement": "HC50 at 1 h", "setting": "Hemolytic assay", "result": "> 200", "unit": "µM"}, {"measurement": "MIC K. pneumonia 406-17", "setting": "K. pneumoniae E406-17", "result": ">50", "unit": "µM"}, {"measurement": "MIC P. aeruginosa 411-17", "setting": "P. aeruginosa E411-17", "result": 25, "unit": "µM"}]}, {"molecule": "CC(C)C[C@H](NC(=O)[C@H](Cc1c[nH]c2ccccc12)NC(=O)[C@H](Cc1c[nH]c2ccccc12)NC(=O)[C@H](Cc1c[nH]c2ccccc12)NC(=O)[C@H](CCCNC(=N)N)NC(=O)[C@H](CCCNC(=N)N)NC(=O)[C@H](CCCNC(=N)N)NC(=O)[C@@H](N)CCCNC(=N)N)C(N)=O", "note": "[WW309, RRRRWWWL] (H-RRRRWWWL-NH2; N-terminus and C-terminus assumed)", "values": [{"measurement": "MIC S. aureus M838-17", "setting": "S. aureus M838-17 (MRSA)", "result": 6.25, "unit": "µM"}, {"measurement": "HC50 at 1 h", "setting": "Hemolytic assay", "result": "> 200", "unit": "µM"}, {"measurement": "MIC K. pneumonia 406-17", "setting": "K. pneumoniae E406-17", "result": ">50", "unit": "µM"}, {"measurement": "MIC P. aeruginosa 411-17", "setting": "P. aeruginosa E411-17", "result": 12.5, "unit": "µM"}]}, {"molecule": "Colistin [reference compound]", "values": [{"measurement": "MIC", "setting": "E. coli E423-17", "result": 1, "unit": "µM"}, {"measurement": "MIC", "setting": "S. aureus USA300", "result": ">8", "unit": "µM"}, {"measurement": "MIC", "setting": "A. baumannii B26-16", "result": 1, "unit": "µM"}, {"measurement": "MIC", "setting": "E. faecium V286-17 (VRE)", "result": ">8", "unit": "µM"}, {"measurement": "MIC", "setting": "K. pneumoniae E406-17", "result": ">8", "unit": "µM"}, {"measurement": "MIC", "setting": "P. aeruginosa E411-17", "result": 2, "unit": "µM"}]}]}
